Results published in patent US9511053B2, “Nitric oxide scavengers” (Baxter International Inc., priority 2004, dated 2016).

Columns and labels:
[1] = Solubility in phosphate buffer; format: physicochemical
Protocol: Synthesis of 1,3-dihydroxy-2-(2-thienyl)-4,4,5,5,-tetramethylimidazolidine (compound 4 where R is compound 4c) was conducted as shown on FIG. 1. Anhydro adduct (compound 3 where R is compound 4c) was synthesized from treatment of 2,3-bis-(hydroxyamino)-2,3-dimetylbutansulfate (compound 1 where R is compound 4c) and 2-thiophenecarboxaldehyde (compound 2 where R is compound 4c) in water and methanol where compound 3 was a stable white solid insoluble in water. Compound 3 was oxidized by lead oxide in chloroform to form blue crystals (compound 4 where R is 4c). […] The nitronyl nitroxide monoradicals (compound 4 where R is compound 4a or 4b) have been tested for nitric oxide scavenge activity as described below in greater detail.

[2] = Stability of the nitronyl nitroxide monoradical on isolation; format: physicochemical; conditions: after oxidation with manganese dioxide in ether and column chromatography
Protocol: Synthesis of 1,3-Dihydroxy-2-(2,4-dihydroxyphenyl)-4,4,5,5,-tetramethylimidazolidine (compound 4 where R is compound 4a) was conducted as shown in FIG. 1. Anhydro adduct compound 3 where R is compound 4a was synthesized from treatment of 2,3-bis-(hydroxyamino)-2,3-dimetylbutansulfate (compound 1 where R is compound 4a) and 2,4-dihydroxybenzaldehyde (compound 2 where R is compound 4a) in a mixture of water and methanol. The nitronyl nitroxide monoradical (compound 4 where R is compound 4a) was obtained after oxidation of compound 3 (where R is compound 4a) with manganese dioxide in ether. Compound 4 was very unstable where only 2.5 mg of compound 4 was obtained after column chromatography.

[3] = NO scavenger assessment: direct measurement of nitric oxide with NO-selective microelectrode; format: biochemical; conditions: anaerobic, room temperature, phosphate buffer 50 mM pH 7.4
Protocol: The nitric oxide (NO) scavenging activity of various compounds was determined by the direct measurement of nitric oxide. Using a NO-selective microelectrode (World Precision Instruments, ISO-NO Mark II) the nitric oxide concentration was monitored upon the addition of the test compound. The reaction rate constant was calculated for each compound. Test compounds were added in molar excess, and therefore pseudo first-order reaction kinetics were observed. The rate constant (ln ks) for each compound was calculated. Reactions were performed under anaerobic conditions at room temperature, in phosphate buffer (50 mM, pH 7.4).

[4] = test system: anesthetized rats treated with LPS to induce hypotension; experiment: Hydroxocobalamin animal study: MAP and HR of anesthetized rats treated with LPS to induce hypotension; format: in vivo, Sprague-Dawley rats
Protocol: Applicants have conducted a study to assess the effect of hydroxocobalamin on the mean arterial pressure (MAP) and heart rate (HR) of anesthetized rats that had been treated with LPS to induce hypotension as described in greater detail below.
Three male Sprague-Dawley rats were acutely instrumented with femoral arterial and venous catheters. Rats were initially anesthetized using a 60 mg/kg i.p. dose of Nembutal (sodium pentobarbital.) Each rat was then instrumented with one arterial catheter for blood pressure measurement, and two venous catheters for test article administration, and infusion of Nembutal (0.42 mL/kg/hr) for maintenance of surgical anesthesia. After placement of the catheters, rats were moved to plexiglass boxes to begin hemodynamic measurements. Baseline data were collected for 30 minutes prior to experimental manipulation in order to verify that all rats were properly anesthetized, and that baseline MAP and HR were within acceptable baseline ranges. Following baseline data collection, each rat received a 5 mg/kg intravenous dose of LPS at a rate of 1 mL/min. After achieving a sustained hypotension at approximately 60 minutes after the LPS infusion, one rat received a 6 mL/kg intravenous dose of hydroxocobalamin (14.5 mM in PBS) over a period of one hour. The remaining two rats each received a 4.57 mL/kg intravenous dose of saline over a period of one hour. MAP and HR measurements continued for 2 hours after hydroxocobalamin or saline infusion. Following LPS administration, all three rats received a continuous intravenous administration of Lactated Ringer's solution in order to prevent dehydration (2.4 mL/kg/hr). Due to a limited amount of hydroxocobalamin, it was only possible to dose one animal with this compound.

CC1(C)N(O)C(c2ccc(O)cc2O)N(O)C1(C)C [4a, 1,3-Dihydroxy-2-(2,4-dihydroxyphenyl)-4,4,5,5,-tetramethylimidazolidine]
solubility in phosphate buffer [1]: soluble in phosphate buffer | stability [2]: very unstable

CC1(C)N([O])C(c2ccc(C(=O)O)cc2)=[N+]([O-])C1(C)C [Carboxy-PTIO]
Rate of NO Scavenging, ln ks ([3]; Molar ratio scavenger to NO 28:1): 3.8 | Rate of NO Scavenging, ln ks ([3]; Molar ratio scavenger to NO 56:1): 3.9 | Rate of NO Scavenging, ln ks ([3]; Molar ratio scavenger to NO 91:1): 3.5 | Rate of NO Scavenging, ln ks ([3]; Molar ratio scavenger to NO 129:1): 3.4

CC1(C)N(O)C(c2ccncc2)N(O)C1(C)C [NN-2, 1,3-Dihydroxy-2-(4-pyridyl)-4,4,5,5,-tetramethylimidazolidine]
Rate of NO Scavenging, ln ks ([3]; Molar ratio scavenger to NO 42:1): 3.7 | Rate of NO Scavenging, ln ks ([3]; Molar ratio scavenger to NO 111:1): 3.4 | solubility in phosphate buffer [1]: soluble in phosphate buffer

CC1(C)N(O)C(c2cccs2)N(O)C1(C)C [NN-3, 1,3-Dihydroxy-2-(2-thienyl)-4,4,5,5,-tetramethylimidazolidine]
Rate of NO Scavenging, ln ks ([3]; Molar ratio scavenger to NO 71:1): 2.8 | Rate of NO Scavenging, ln ks ([3]; Molar ratio scavenger to NO 126:1): 2.8 | solubility in phosphate buffer [1]: soluble in phosphate buffer

C/C1=C2/[N-][C@H]([C@H](CC(N)=O)[C@@]2(C)CCC(=O)NC[C@@H](C)OP(=O)([O-])OC2C(O)[C@@H](n3cnc4cc(C)c(C)cc43)O[C@@H]2CO)[C@]2(C)N=C(/C(C)=C3N=C(/C=C4N=C1[C@@H](CCC(N)=O)C\4(C)C)[C@@H](CCC(N)=O)[C@]\3(C)CC(N)=O)[C@@H](CCC(N)=O)[C@]2(C)CC(N)=O.CC(=O)[O-].[Co+3] (some centres unmarked) [Vitamin B12a (acetate)]
Rate of NO Scavenging, ln ks ([3]; Molar ratio scavenger to NO 33:1): 3.7 | Rate of NO Scavenging, ln ks ([3]; Molar ratio scavenger to NO 47:1): 3.4 | Rate of NO Scavenging, ln ks ([3]; Molar ratio scavenger to NO 142:1): 3.7 | Rate of NO Scavenging, ln ks ([3]; Molar ratio scavenger to NO 277:1): 3.1

C/C1=C2/[N-][C@H]([C@H](CC(N)=O)[C@@]2(C)CCC(=O)NC[C@@H](C)OP(=O)([O-])O[C@H]2[C@@H](O)[C@@H](n3cnc4cc(C)c(C)cc43)O[C@@H]2CO)[C@]2(C)N=C(/C(C)=C3N=C(/C=C4N=C1[C@@H](CCC(N)=O)C\4(C)C)[C@@H](CCC(N)=O)[C@]\3(C)CC(N)=O)[C@@H](CCC(N)=O)[C@]2(C)CC(N)=O.[Co+3].[OH-] [hydroxocobalamin]
MAP below baseline levels ([4]; 60-180 minutes post-LPS (5 mg/kg i.v.), 6 mL/kg i.v. of 14.5 mM in PBS over one hour from 60 min post-LPS, one rat): 10-20 mmHg | survival ([4]; LPS 5 mg/kg i.v., 6 mL/kg i.v. of 14.5 mM in PBS over one hour, one rat, both saline rats died): survived the entire experiment | effect on HR and MAP (in words) ([4]; anesthetized rat with LPS-induced hypotension, summary): increased HR and allowed MAP to be maintained | HR above baseline levels ([4]; from 60 minutes post-LPS infusion, 6 mL/kg i.v. of 14.5 mM in PBS over one hour, one rat): approximately 140 bpm
